Measurements from publication PMC4403932 (Journal of Medicinal Chemistry, 2015).

Legend:
Type in all cases: binding
[1] = molecular target: T1, BRD9 (Homo sapiens, UniProt Q9H8M2); test: Protein stability (thermal) shift assay, BRD9; details: for ΔTm at 10 µM: compound 10 μM, protein 2 μM, average of triplicate, read-out: ΔTm Shift, BRD9
T1 construct: made in house
T1 sequence (Q9H8M2 136-240 limits assumed): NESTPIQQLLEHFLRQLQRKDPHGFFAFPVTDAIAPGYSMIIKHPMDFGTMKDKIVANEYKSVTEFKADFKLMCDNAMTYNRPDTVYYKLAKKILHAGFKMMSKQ
Procedure: (§1) Thermal melting experiments were carried out using an Mx3005p real time PCR machine (Stratagene). Proteins were buffered in 10 mM HEPES, pH 7.5, 500 mM NaCl and assayed in a 96-well plate at a final concentration of 2 μM in 20 μL volume. Compounds were added at a final concentration of 10 or 100 μM. SYPRO Orange (Molecular Probes) was added as a fluorescence probe at a dilution of 1 in 1000. Excitation and emission filters for the SYPRO-Orange dye were set to 465 and 590 nm, respectively. The temperature was raised with a step of 3 °C per minute from 25 to 96 °C, and fluorescence readings were taken at each interval. The temperature dependence of the fluorescence during the protein denaturation process was approximated by the equation [drawing 1] where ΔuG is the difference in unfolding free energy between the folded and unfolded state, R is the gas constant, and yF and yU are the fluorescence intensity of the probe in the presence of completely folded and unfolded protein, respectively.[65] The baselines of the denatured and native states were approximated by a linear fit. The observed temperature shifts, ΔTm^obs, were recorded as the difference between the transition midpoints of sample and reference wells containing protein without ligand in the same plate and determined by nonlinear least-squares fit. Temperature shifts (ΔTm^obs) for three independent measurements per proteins/compound are summarized in Supporting Information Table S1.

[2] = molecular target: T2, BRD4(1) (Homo sapiens, UniProt O60885); test: Protein stability (thermal) shift assay, BRD4(1); details: compound 10 μM, protein 2 μM; average of triplicate; read-out: ΔTm Shift, BRD4(1)
T2 construct: made in house
Procedure: as §1

[3] = molecular target: T3, BRD2(1) (Homo sapiens, UniProt P25440); test: Protein stability (thermal) shift assay, BRD2(1); details: compound 10 μM, protein 2 μM; average of triplicate
T3 construct: Fragments were tested in a thermal shift assay against bromodomains of the BET subfamily; made in house
Procedure: as §1

[4] = molecular target: T4, PCAF (Homo sapiens, UniProt Q92831); test: Protein stability (thermal) shift assay, PCAF; details: compound 10 μM, protein 2 μM; average of triplicate
T4 construct: representative BRDs from other structural subfamilies (family I, PCAF); made in house
T4 sequence (Q92831 723-827 limits assumed): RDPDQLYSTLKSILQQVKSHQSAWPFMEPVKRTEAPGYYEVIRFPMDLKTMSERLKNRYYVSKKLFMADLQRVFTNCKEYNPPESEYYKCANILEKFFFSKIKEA
Procedure: as §1

[5] = molecular target: T5, CREBBP (Homo sapiens, UniProt Q92793); test: Protein stability (thermal) shift assay, CREBBP; details: compound 10 μM, protein 2 μM; average of triplicate; read-out: ΔTm Shift, CREBBP
T5 construct: small thermal shits (1.0–1.3 °C) for the bromodomain of CREBBP; made in house
Procedure: as §1

[6] = molecular target: T6, BRDT(2) (Homo sapiens, UniProt Q58F21); test: Protein stability (thermal) shift assay, BRDT(2); details: compound 10 μM, protein 2 μM; average of triplicate; read-out: ΔTm Shift, BRDT(2)
T6 construct: made in house
Procedure: as §1

[7] = molecular target: T7, PB1(5) (Homo sapiens, UniProt Q86U86); test: Protein stability (thermal) shift assay, PB1(5); details: compound 10 μM, protein 2 μM; average of triplicate
T7 construct: made in house
Procedure: as §1

[8] = molecular target: T8, BRD2(2) (Homo sapiens, UniProt P25440); test: Protein stability (thermal) shift assay, BRD2(2); details: compound 10 μM, protein 2 μM; average of triplicate
T8 construct: made in house
Procedure: as §1

[9] = molecular target: T9, BRD3(1) (Homo sapiens, UniProt Q15059); test: Protein stability (thermal) shift assay, BRD3(1); details: compound 10 μM, protein 2 μM; average of triplicate
T9 construct: Fragments were tested in a thermal shift assay against bromodomains of the BET subfamily; made in house
Procedure: as §1

[10] = molecular target: T10, BRD3(2) (Homo sapiens, UniProt Q15059); test: Protein stability (thermal) shift assay, BRD3(2); details: compound 10 μM, protein 2 μM; average of triplicate
T10 construct: made in house
Procedure: as §1

[11] = molecular target: T11, BRD4(2) (Homo sapiens, UniProt O60885); test: Protein stability (thermal) shift assay, BRD4(2); details: compound 10 μM, protein 2 μM; average of triplicate
T11 construct: made in house
Procedure: as §1

[12] = molecular target: T12, BRDT(1) (Homo sapiens, UniProt Q58F21); test: Protein stability (thermal) shift assay, BRDT(1); details: compound 10 μM, protein 2 μM; average of triplicate
T12 construct: made in house
Procedure: as §1

[13] = molecular target: T13, BAZ2B (Homo sapiens, UniProt Q9UIF8); test: Protein stability (thermal) shift assay, BAZ2B; details: compound 10 μM, protein 2 μM; average of triplicate; read-out: ΔTm Shift, BAZ2BA
T13 construct: representative BRDs from other structural subfamilies (family I, PCAF); family III, CREBBP; family IV, BRD9; family V, BAZ2B; made in house
T13 sequence (Q9UIF8 2060-2164 limits assumed): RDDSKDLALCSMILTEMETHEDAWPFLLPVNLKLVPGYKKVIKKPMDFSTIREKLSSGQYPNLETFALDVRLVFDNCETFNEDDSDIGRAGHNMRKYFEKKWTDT
Procedure: as §1

T9 sequence (Q15059 34-140 limits assumed): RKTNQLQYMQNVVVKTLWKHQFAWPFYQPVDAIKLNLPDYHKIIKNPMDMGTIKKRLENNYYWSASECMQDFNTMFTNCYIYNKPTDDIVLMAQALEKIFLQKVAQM
T10 sequence (Q15059 306-415 limits assumed): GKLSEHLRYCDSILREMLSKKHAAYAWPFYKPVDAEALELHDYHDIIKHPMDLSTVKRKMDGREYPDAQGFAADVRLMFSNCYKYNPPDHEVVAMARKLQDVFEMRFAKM
T7 sequence (Q86U86 653-763 limits assumed): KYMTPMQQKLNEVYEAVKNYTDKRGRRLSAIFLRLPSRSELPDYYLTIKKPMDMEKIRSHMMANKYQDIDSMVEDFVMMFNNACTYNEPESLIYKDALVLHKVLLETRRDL
T5 sequence (Q92793 1085-1192 limits assumed): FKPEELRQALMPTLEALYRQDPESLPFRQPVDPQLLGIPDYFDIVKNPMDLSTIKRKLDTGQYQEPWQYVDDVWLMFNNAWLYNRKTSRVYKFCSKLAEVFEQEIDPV
T3 sequence (P25440 74-180 limits assumed): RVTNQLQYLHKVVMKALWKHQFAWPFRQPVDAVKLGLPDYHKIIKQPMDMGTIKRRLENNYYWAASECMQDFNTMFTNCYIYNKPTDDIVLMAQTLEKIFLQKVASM
T8 sequence (P25440 344-453 limits assumed): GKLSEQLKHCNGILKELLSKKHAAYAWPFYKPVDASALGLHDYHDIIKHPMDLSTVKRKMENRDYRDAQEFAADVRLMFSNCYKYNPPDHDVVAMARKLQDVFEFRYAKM

| SMILES | ΔTm at 10 µM [1] [°C] | ΔTm at 10 µM [2] [°C] | ΔTm at 10 µM [3] [°C] | ΔTm at 10 µM [4] [°C] | ΔTm at 10 µM [5] [°C] | ΔTm at 10 µM [6] [°C] | ΔTm at 10 µM [7] [°C] | ΔTm at 10 µM [8] [°C] | ΔTm at 10 µM [9] [°C] | ΔTm at 10 µM [10] [°C] | ΔTm at 10 µM [11] [°C] | ΔTm at 10 µM [12] [°C] | ΔTm at 10 µM [13] [°C] | binding to BRD9 in the ΔTm assay (in words) ([1]; thermal shift, 10 μM compound) |
| --- | --- | --- | --- | --- | --- | --- | --- | --- | --- | --- | --- | --- | --- | --- |
| COc1cccc(OCC(C)C)c1-c1nc(N)nc2[nH]cnc12 [Compound 6c, 2-Amino-6-(2-isobutoxy-6-methoxyphenyl)-9H-purine] | -0.0523 | 1 | 0.187 | -0.121 | -0.4 | 0.8 | -0.324 | 0.6 | 1.2 | 1.1 | 0.4 | -0.0153 | -0.147 |  |
| Nc1nc(-c2ccc(Oc3ccccc3)cc2)c2nc[nH]c2n1 [Compound 3d, 2-Amino-6-(4-phenoxyphenyl)-9H-purine] | 0.847 | 0.533 | -0.0833 | 0.2 | 0.6 | 0.3 | 0.0567 | 0.5 | -0.127 | 0.7 | 0.5 | 0.253 | 0.273 |  |
| CCCCOc1cc(Br)cc(-c2nc(N)nc3[nH]cnc23)c1 [Compound 5a, 2-Amino-6-(3-bromo-5-butoxyphenyl)-9H-purine] | 1.1 | 1.6 | 0.7 | 1.3 | 1.7 | 1.8 | 1.1 | 1.7 | 0.9 | 1.5 | 1.3 | 1 | 1.1 |  |
| COc1ccc(-c2nc(N)nc3[nH]cnc23)cc1 [Compound 3b, 2-Amino-6-(4-methoxyphenyl)-9H-purine] | 0 | 0.223 | -0.253 | 0.0867 | 0.663 | -0.167 | -0.08 | 0.337 | -0.06 | 0.4 | 0.0133 | -0.133 | 0.00333 |  |
| Clc1nc(Cl)c2nc[nH]c2n1 [Compound 1, 2,6-dichloro-9H-purine] |  | 1.6 | 0.361 | -0.8 | 1.6 | -0.234 | 1.4 | -0.374 | 0.7 | -0.159 | 0.5 | -0.8 | -0.1 |  |

Other lines, results leading:

| ΔTm at 10 µM [1] [°C] | ΔTm at 10 µM [2] [°C] | ΔTm at 10 µM [3] [°C] | ΔTm at 10 µM [4] [°C] | ΔTm at 10 µM [5] [°C] | ΔTm at 10 µM [6] [°C] | ΔTm at 10 µM [7] [°C] | ΔTm at 10 µM [8] [°C] | ΔTm at 10 µM [9] [°C] | ΔTm at 10 µM [10] [°C] | ΔTm at 10 µM [11] [°C] | ΔTm at 10 µM [12] [°C] | ΔTm at 10 µM [13] [°C] | binding to BRD9 in the ΔTm assay (in words) ([1]; thermal shift, 10 μM compound) | SMILES |
| --- | --- | --- | --- | --- | --- | --- | --- | --- | --- | --- | --- | --- | --- | --- |
| 0.8 | 0.4 | -0.3 | -1.2 | -1.5 | -0.166 | -1.6 | -0.0273 | 0.0747 | 0.9 | -1.3 | -0.125 | -0.9 |  | Nc1nc(-c2ccc3c(c2)OCCO3)c2nc[nH]c2n1 [Compound 4c, 2-Amino-6-(2,3-dihydrobenzo[b][1,4]dioxin-6-yl)-9H-purine] |
| -0.9 | -0.18 | -0.5 | 0.1 | 0.363 | 0.271 | 0.339 | 0.459 | -0.125 | 0.215 | -7.9 | -0.322 | -1 |  | Nc1nc(-c2ccc(COc3cccc(C(F)(F)F)c3)cc2)c2nc[nH]c2n1 [Compound 3g, 2-Amino-6-(4-(3′-(trifluoromethyl)phenoxymethyl)phenyl)-9H-purine] |
| -0.162 | 0.6 | -0.459 | -0.261 | -0.1 | 0.447 | 0.216 | -0.3 | 0.651 | 0.6 | -0.845 | 0.165 | -0.3 |  | COc1cccc(OC(C)C)c1-c1nc(N)nc2[nH]cnc12 [Compound 6b, 2-Amino-6-(2-isopropoxy-6-methoxyphenyl)-9H-purine] |
| -0.532 | 0.6 | 0.354 | -0.2 | 1 | 0.7 | 0.5 | 1.2 | 0.5 | 2 | -2.8 | 0.528 | -0.127 |  | COCCc1ccc(OCc2ccc(-c3nc(N)nc4[nH]cnc34)cc2)cc1 [Compound 3h, 2-Amino-6-(4-((4′-(2-methoxyethyl)phenoxy)methyl)phenyl)-9H-purine] |
|  | 1.5 | 0.643 | 0.7 | 1.5 | 1.2 | 0.553 | 1.4 | 0.7 | 1.2 | 1 | 0.7 | 0.653 |  | Nc1nc(-c2cccc(OCc3ccc(Cl)cc3)c2)c2nc[nH]c2n1 [Compound 4d, 2-Amino-6-(3-(4′-chlorobenzyloxy)phenyl)-9H-purine] |
| -1.7 | -0.15 | -0.5 | -0.2 | 0.9 | 0.224 | 0.536 | -0.5 | -0.252 | -0.092 | -2.6 | -0.0553 | -0.367 |  | Nc1nc(-c2ccc(OCc3ccccc3)c(Cl)c2)c2nc[nH]c2n1 [Compound 4a, 2-Amino-6-(4-benzyloxy-3-chlorophenyl)-9H-purine] |
| 0.316 | 1.9 | 0.4 | -1.1 | 0.5 | 1.5 | 0.3 | 1.7 | 1.6 | 2.7 | -1.5 | 0.275 | -0.5 | Affinity for BRD9 was lost | CCOc1ccc(Br)cc1-c1nc(N)nc2[nH]cnc12 [Compound 7e, 2-Amino-6-(5-bromo-2-ethoxyphenyl)-9H-purine] |
| -2 | 0.54 | -0.113 | 1.6 | -0.04 | 0.7 | 0.7 | 0.159 | 0.445 | -0.379 | -2.9 | 0.658 | 2.3 |  | COc1cc(COc2ccc(-c3nc(N)nc4[nH]cnc34)cc2Cl)cc(OC)c1 [Compound 4b, 2-Amino-6-(3-chloro-4-(3′,5′-dimethoxybenzyloxy)phenyl)-9H-purine] |
